The text below walks through data of patent US11236053B2, “NADPH oxidase inhibitors and uses thereof” (Emory University, priority 2017, dated 2022).

The term cell viability denotes the share of living cells, or the viability signal relative to a control.

A short description of series [1]: Superoxide scavenging assay (xanthine/xanthine oxidase, cytochrome C). It counts as biochemical. To be noted: in vitro, concentrations up to 100 μM, superoxide from xanthine/xanthine oxidase. On the procedure: (§1) ROS scavenging by sulfonylurea compound 23, 24, or 25 was assessed in vitro. Superoxide was generated with xanthine/xanthine oxidase and measured using the cytochrome C assay. In addition, 5 μM hydrogen peroxide was added exogenously and measured using the Amplex Red™ assay. ROS were measured in the presence of indicated concentrations of each compound or DMSO solvent. Bars represent means±SEM of 4 (superoxide) or 3 (hydrogen peroxide) independent experiments. Differences between DMSO and sulfonylurea compounds are not significant.
(§2) To assess ROS scavenging, the consumption of superoxide, generated by xanthine/xanthine oxidase, or of exogenous hydrogen peroxide, was measured by increasing concentrations of the compounds of interest.
An assay was developed based on the measurement of superoxide-dependent changes in cytochrome C absorbance at 550 nm. Briefly, superoxide was generated in vitro in phosphate buffered saline solution, using hypoxanthine (100 μM)/xanthine oxidase (6×10^3 U/mL) in the presence of catalase (200 U/mL) to eliminate H2O2. Compounds under study were added at various concentrations (1-100 μM) and remaining superoxide was measured with cytochrome C (46 μM). Superoxide dismutase (575 U/mL) was used as a positive control in separate samples measured at the same time. Following a 1 min stabilization period, absorbance was measured at 550 nm in a microplate reader (Biotek), using a kinetic program (1 read/min) for 15 min. The linear slope representing the rate of superoxide production was used to calculate the percentage of superoxide scavenging.

Series [2] in a line: Hydrogen peroxide scavenging assay (Amplex Red). It counts as biochemical. The conditions noted are these: in vitro, concentrations up to 100 μM, 5 μM exogenous hydrogen peroxide. Here is the method:
as §1, §2
Hydrogen peroxide was measured in vitro, using an Amplex Red™ assay kit (Invitrogen), according to the manufacturer's instructions. This assay measures the oxidation of Amplex Red™ (10-acetyl-3,7-dihydroxyphenoxazine) to fluorescent resorufin in the presence of horseradish peroxidase. Briefly, H2O2 ([…]) was added to various concentrations (1-100 μM) of the compounds under study in reaction buffer. After an incubation of 5 min, Amplex Red™ was added to measure remaining H2O2. Reactions were incubated for 30 min at room temperature, protected from light. Resorufin fluorescence was measured in a microplate reader (Biotek) using excitation at 530 nm and emission at 590 nm.

Series [3] deals with Nox4-dependent signaling. Put plainly: TGF-β-induced α-SMA upregulation in human aortic smooth muscle cells (Western blot). To be noted: HASMCs pretreated 30 min, TGF-β 24 h, Western blot normalized to β-tubulin. It counts as cell-based. Here is the method:
Human aortic smooth muscle cells in culture were incubated with indicated concentrations of compound 23, 24, or 25 and stimulated with 2 ng/ml TGF-β for 24 h to induce a Nox4-dependent upregulation of smooth muscle alpha-actin (α-SMA). Protein expression was measured by Western blotting and normalized to β-tubulin. In the absence of inhibitor, α-SMA induction by TGF-β was maximal (100%).
Cells were pretreated with a candidate inhibitor 30 min before exposure to TGF-β and harvested after 24 h. Actin expression was measured by western blotting with a specific antibody.
(In western blotting, separated proteins are transferred to a membrane and probed.)

The subject of series [4] is Nox4 mRNA. Put plainly: Nox4 mRNA qPCR assay in TGF-β-stimulated cells. It counts as cell-based, human. To be noted: preincubation, same range of concentrations as FIG. 11, TGF-β stimulated. For orientation: Real-time PCR tracks product formation cycle by cycle.
For series [5], the system named is human aortic smooth muscle cells. Put plainly: Mammalian cell live/dead viability assay. It counts as cell-based. The conditions noted are these: TGF-β stimulated, n=6. Here is the method:
To rule out a possible toxic effect of these compounds in cultured cells, cell viability was measured using a commercial mammalian cell live/dead assay. Stimulation with TGF-β alone had no effect on cell viability (99±0.61%, P=NS, n=4).

Series [6] concerns hippocampal brain slices. The conditions noted are these: hippocampal brain slices treated with Nox 4 inhibitors; cited from earlier work.

`COc1ccc(S(=O)(=O)N2CCCN(c3ccc(C(F)(F)F)cc3)C2=O)cc1` [Compound 23, 1-((4-Methoxyphenyl)sulfonyl)-3-(4-(trifluoromethyl)phenyl)-tetrahydropyrimidin-2(1H)-one]: in series [1], the “effect on superoxide (ROS scavenging)” value is listed as “no effect”. In series [2], the “effect on hydrogen peroxide (ROS scavenging)” value (“effect on hydrogen peroxide” for short) is listed as “no effect”. Moreover, the “inhibition of Nox4-dependent signaling (α-SMA expression)” value (from here on “inhibition of Nox4-dependent signaling”) in series [3] was “profoundly inhibiting”. In addition, in series [4], the “effect on Nox4 expression (Nox4 mRNA)” value is listed as “did not affect”. The cell viability in series [5] (100 μM preincubation) stood at 92±3.09%.

As to `O=C1N(c2ccc(C(F)(F)F)cc2)CCCN1S(=O)(=O)c1ccc(F)cc1` [Compound 24, 1-((4-Fluorophenyl)sulfonyl)-3-(4-(trifluoromethyl)phenyl)-tetrahydropyrimidin-2(1H)-one], the “effect on superoxide (ROS scavenging)” value in series [1] is reported as “no effect”. Further, the “effect on hydrogen peroxide” value in series [2] is on record as “no effect”. Moreover, the “inhibition of Nox4-dependent signaling” value in series [3] is “profoundly inhibiting”. Further, the “effect on Nox4 expression (Nox4 mRNA)” value in series [4] is recorded as “did not affect”. Also, the cell viability in series [5] (100 μM preincubation) stood at 100±0.97%.

For the compound `COc1ccc(S(=O)(=O)N2CCN(c3ccc(C(F)(F)F)cc3)C2=O)cc1` [Compound 25, 1-((4-Methoxyphenyl)sulfonyl)-3-(4-(trifluoromethyl)phenyl)-imidazolidin-2-one], in series [1], the “effect on superoxide (ROS scavenging)” value is “no effect”. Besides, the “effect on hydrogen peroxide” value in series [2] is recorded as “no effect”. The “inhibition of Nox4-dependent signaling” value in series [3] is given as “profoundly inhibiting”. Further, the “effect on Nox4 expression (Nox4 mRNA)” value in series [4] is listed as “did not affect”. This compound gave a cell viability in series [5] (10 μM preincubation) of 97±2.50%.

For `Cc1c2c(=O)n(-c3ccccc3Cl)[nH]c2cc(=O)n1Cc1ccccn1` [GKT136901], the cell death result in series [6] is “significantly reduced”.
